Consider 11 molecules from patent publication US5985281A, “Chemical compounds” (Zeneca Limited, priority 1994, dated 1999).

The subject of data set [1] is Lys66Glu BP-RNase. The data set is classed as biochemical, bovine. Conditions: for kcat/Km: pH 7.5.
The subject of another data set is HP-RNase. Type of data set: biochemical, human. Conditions: pH 7.
Data set [2] has as its system Arg4Ala,Lys6Ala,Lys66Glu HP-RNase. Type of data set: biochemical, human. The settings on record: for kcat/Km: pH 7.
The subject of data set [3] is Lys66Glu BP-RNase. The data set is described as follows: Enzyme kinetics of prodrug analogues with mutant Lys66Glu bovine RNase. The settings on record: 25° C.
Another data set concerns LoVo tumour. Nature of the data set: Anti-tumour activity in LoVo xenografted mice. The settings on record: conjugate 10-100 mg/kg iv, then prodrug 100-1000 mg/kg iv or ip; vs untreated, conjugate or prodrug alone. Type of data set: in vivo, athymic nude mice. Here is the method: LoVo tumour cells (10^7) are injected subcutaneously into athymic nude mice. When the tumours are 4-5 mm in diameter the conjugate is administered iv at doses between 10-100 mg/kg. Following localisation of the conjugate to the tumours and allowing a suitable time interval for residual conjugate to clear from the bloodstream and normal tissues (1-4 days) the prodrug is administered either iv or ip to the mice in dose ranging between 100-1000 mg/kg.

Another data set has as its target T1, BP-RNase (Bos taurus, UniProt P61823).
T1 sequence (P61823 27-150): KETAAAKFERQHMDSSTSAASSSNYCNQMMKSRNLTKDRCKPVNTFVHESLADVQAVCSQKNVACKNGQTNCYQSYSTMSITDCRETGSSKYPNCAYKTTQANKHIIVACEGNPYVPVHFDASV
The data set is described as follows: Enzyme kinetics of RNase prodrug versus native bovine pancreatic RNase. Type of data set: biochemical. Conditions: 37° C., pH 7.5.

Data set [4] has as its system LoVo colorectal tumour cells.
The subject of another data set is D253K mutant HCPB. The data set is described as follows: Determination of Km and kcat of D253K mutant HCPB with Hipp-Asp and Hipp-Glu. The settings on record: for Km / kcat / kcat/Km: pH 7.5, 37° C. The data set is classed as biochemical, human.
For a further data set, the target named is C > p. The data set is described as follows: Kinetic characterisation of RNase enzymes with C>p as substrate at pH 7.0. Type of data set: biochemical. Conditions: CpA and C>p as substrates. How it is done: The kinetic characterisation was carried out using CpA and C>p as substrates (FIG. 16). The kinetic parameters Km, kcat, and kcat/Km were compared with the values obtained for commercial and recombinant bovine pancreatic RNase under the same assay conditions (see Tables).
Kinetic parameters of the different enzymes for C > p as […]

A further data set has as its system C>p. The data set is described as follows: RNase activity of recombinant and Lys66Glu bovine RNase on hydrolysis of C>p (and CpA). Type of data set: biochemical.
A short description of data set [5]: Enzymic activity of recombinant HCPB against Hipp-Arg (spectrophotometric). The settings on record: Tris HCl pH 7.5. The data set is classed as biochemical. How it is done: Purified human CPB, produced as described in Reference Example 20, was assayed for its ability to convert hippuryl-L-arginine (Hipp-Arg) to hippuric acid using a spectrophotometric assay.
Km and Vmax values were calculated using the ENZFITTER™ software programme (Biosoft™, Perkin Elmer). Kcat was calculated form Vmax by dividing by the enzyme concentration in the reaction mixture.

Data set [6] is described as follows: HCPB activity of COS cell supernatants against Hipp-Arg. The settings on record: COS-7 supernatant (250 μl), 5 h assay. The data set is classed as biochemical.
Data set [7] is described as follows: Conversion of Hipp-Asp to hippuric acid by mutant and native human CPB (HPLC). The data set is classed as biochemical. Conditions: 0.5 mM Hipp-Asp, 4 μg enzyme, 5 h, 37° C., pH 7.5.
The nature of data set [8]: Conversion of Hipp-Glu to hippuric acid by mutant and native human CPB (HPLC). The settings on record: 0.5 mM Hipp-Glu, 4 μg enzyme, 5 h, 37° C., pH 7.5. The data set is classed as biochemical.
Data set [9] in a line: Conversion of Hipp-Arg to hippuric acid by mutant and native human CPB (HPLC). Type of data set: biochemical. The settings on record: 4 μg enzyme, 5 h, 37° C., pH 7.5.

Changes are numbered by the printed parent chain. Names may count otherwise. Where two headings read alike, the source gives them in different places. Residues, ends and D or L forms follow the SMILES beside them.

For orientation: IC50 means the midpoint of a concentration-inhibition curve. As usually defined, the Km is the substrate concentration at which the rate is half of its maximum. As a reminder, the kcat is the maximal rate divided by the concentration of active sites.

For `Nc1ccn([C@@H]2O[C@H](CO)[C@H]3OP(=O)(O)O[C@H]32)c(=O)n1` [C > p, cytidine-2',3'-cyclic monophosphate, reference compound], the kcat/Km in the data set on Lys66Glu BP-RNase [1] was 3.0; with HP-RNase, 1.2; in [2], 1.2; in the data set with Lys66Glu BP-RNase [3] it was 3.0 mM⁻¹ s⁻¹.

As for `NCC(=O)NC[C@H]1O[C@@H](n2ccc(=O)[nH]c2=O)[C@H](O)[C@@H]1OP(=O)(O)Oc1ccc(N(CCCl)CCCl)cc1` [Example 3, O-[(2R,3S,4R,5R)-2-(2-aminoacetamidomethyl)-5-(2,4-dioxo-1,2,3,4-tetrahydropyrimidin-1-yl)-4-hydroxy-2,3,4,5-tetrahydrofuran-3-yl]O-[4-(bis[2-chloroethyl]amino)phenyl] hydrogen phosphate], the “tumour growth with combination of conjugate and prodrug” value in the data set on LoVo tumour is reported as “significantly slower”. In addition, the kcat/Km was 370 M⁻¹ s⁻¹ at BP-RNase, 18 in the data set with Lys66Glu BP-RNase [1], 0.2 in the data set on HP-RNase and 3.6 in [2]. Also, the “rate of hydrolysis compared with native enzyme” value (with Lys66Glu BP-RNase [1]; in data set [2]) was “much faster than the native enzyme” throughout. Besides, the “cytotoxicity of prodrug with A5B7 F(ab')2-Arg4Ala,Lys6Ala,Lys66Glu HP-RNase conjugate” value in [4] is given as “comparable to that of the active drug”. Further, the “cytotoxicity of prodrug with free Arg4Ala,Lys6Ala,Lys66Glu HP-RNase” value in data set [4] was “comparable to that of the active drug”. For the same molecule, the “fold less cytotoxic than the drug” value in data set [4] (human) is reported as “approximately 30 fold”. Moreover, the IC50 in [4] (read-out: IC50 (inhibition of cell growth by 50%)) was around 30 µM.

As to `O=C(O)C[C@H](NC(=O)CNC(=O)c1ccccc1)C(=O)O` [Hipp-Asp, hippuryl-L-aspartic acid] (HELM PEPTIDE1{[O=C(c1ccccc1)[*:2]].G.D}$$$$V2.0), in the data set on D253K mutant HCPB, the Km worked out at 2.7 mM, the catalytic constant (kcat) was 0.26 s⁻¹ and the kcat/Km turned out to be 100 M⁻¹ s⁻¹.

In the case of `O=C(O)CC[C@H](NC(=O)CNC(=O)c1ccccc1)C(=O)O` [Hipp-Glu, hippuryl-L-glutamic acid] (HELM PEPTIDE1{[O=C(c1ccccc1)[*:2]].G.E}$$$$V2.0), the “kcat/Km compared to the Hipp-Asp substrate” value with D253K mutant HCPB (Hipp-Glu vs Hipp-Asp) is given as “approximately 7 fold”. Besides, in the data set on D253K mutant HCPB, the Km worked out at 5.3 mM, the kcat is 3.8 s⁻¹ and the kcat/Km is 700 M⁻¹ s⁻¹.

`CCCN(CCC)c1ccc(OP(=O)(O)O[C@H]2[C@@H](O)[C@H](n3ccc(=O)[nH]c3=O)O[C@@H]2CNC(=O)CN)cc1` [Reference Example 6]: the kcat/Km in the data set on Lys66Glu BP-RNase [3] is recorded as 25(6) mM^-1 s^-1.

As for `CCCN(CCC)c1ccc(OP(=O)(O)O[C@H]2[C@@H](O)[C@H](n3ccc(N)nc3=O)O[C@@H]2CNC(=O)CN)cc1` [Reference Example 7], the kcat/Km with Lys66Glu BP-RNase [3] is reported as 109(11) mM^-1 s^-1.

B1: Rec. HP-RNase R4A:K6A: recombinant Arg4Ala,Lys6Ala human pancreatic ribonuclease (protein, UniProt P07998 29-156, looked up, variant R4A K6A)
Ribonuclease pancreatic: KESAAAKFQRQHMDSDSSPSSSSTYCNQMMRRRNMTQGRCKPVNTFVHEPLVDVQNVCFQEKVTCKNGQGNCYKSNSSMHITDCRLTNGSRYPNCAYRTSPKERHIIVACEGSPYVPVHFDASVEDST
As to B1, at C > p, the “kinetic properties compared with homologous bovine counterpart” value is “not significantly different”.

B2: Rec. BP-RNase: recombinant bovine pancreatic ribonuclease (protein, UniProt P61823 27-150, looked up)
Ribonuclease pancreatic: T1 sequence (P61823 27-150)
Turning to B2, the “specific activity compared with the commercial enzyme” value in the data set on C>p (hydrolysis of CpA and C>p) is recorded as “equal specific activity to that of the commercial enzyme”.

B3: Lys66Glu BP-RNase: bovine Lys66Glu pancreatic ribonuclease (protein, UniProt P61823 27-150, looked up, variant K66E)
Ribonuclease pancreatic: T1 sequence (P61823 27-150) with K66E
As for B3, the “kinetic properties compared with commercial bovine enzyme” value at C>p (C>p hydrolysis, pH 7.0) is listed as “not significantly different to the commercial bovine enzyme”.

B4: Native CPB: native human pancreatic carboxypeptidase B, recombinant (protein, UniProt P15086 111-417, looked up)
Carboxypeptidase B: ATGHSYEKYNKWETIEAWTQQVATENPALISRSVIGTTFEGRAIYLLKVGKAGQNKPAIFMDCGFHAREWISPAFCQWFVREAVRTYGREIQVTELLDKLDFYVLPVLNIDGYIYTWTKSRFWRKTRSTHTGSSCIGTDPNRNFDAGWCEIGASRNPCDETYCGPAAESEKETKALADFIRNKLSSIKAYLTIHSYSQMMIYPYSYAYKLGENNAELNALAKATVKELASLHGTKYTYGPGATTIYPAAGGSDDWAYDQGIRYSFTFELRDTGRYGFLLPESQIRATCEETFLAIKYVASYVLEHLY
B4: in [5], the kcat was found to be 65 s⁻¹. The “hydrolysis of Hipp-Arg substrate” value in [6] (LIPOFECTIN-only control 1.2%) was 61%. In [7], the “% conversion to Hippuric acid, Hipp-Asp” value came to 0%. Besides, the “% conversion to Hippuric acid, Hipp-Glu” value in data set [8] was 0%. Also, the “% conversion to Hippuric acid, Hipp-Arg” value in data set [9] is reported as 100%.

B5: proHCPB: pro form of human pancreatic carboxypeptidase B expressed from COS cells (protein, UniProt P15086 16-417, looked up)
pro-form: HHGGEHFEGEKVFRVNVEDENHINIIRELASTTQIDFWKPDSVTQIKPHSTVDFRVKAEDTVTVENVLKQNELQYKVLISNLRNVVEAQFDSRVRATGHSYEKYNKWETIEAWTQQVATENPALISRSVIGTTFEGRAIYLLKVGKAGQNKPAIFMDCGFHAREWISPAFCQWFVREAVRTYGREIQVTELLDKLDFYVLPVLNIDGYIYTWTKSRFWRKTRSTHTGSSCIGTDPNRNFDAGWCEIGASRNPCDETYCGPAAESEKETKALADFIRNKLSSIKAYLTIHSYSQMMIYPYSYAYKLGENNAELNALAKATVKELASLHGTKYTYGPGATTIYPAAGGSDDWAYDQGIRYSFTFELRDTGRYGFLLPESQIRATCEETFLAIKYVASYVLEHLY
modifications: pro-form
notes: pro form of human pancreatic carboxypeptidase B expressed from COS cells
Turning to B5, the “hydrolysis of Hipp-Arg substrate after activation with trypsin” value in data set [6] (trypsin 700 μg/ml, LIPOFECTIN-only control 30%) is given as “complete hydrolysis”.
